# Source: patent US10383823B2 (Mallinckrodt LLC, priority 2013, dated 2019)
# Experiments:
# KB tumors = assay type: in vivo; conditions: KB tumored nude mice, dosed at 8 mg/kg cisplatin
# [1] = system: A427 human NSCLC xenografts; conditions: single treatment, 14 days post injection, equivalent cisplatin levels
# [2] = mouse KB tumor model
structure (smiles),measurement,setting,value
"N.N.[Cl][Pt][Cl] [Cisplatin, (SP-4-2)-diamminedichloridoplatinum (II)]",peak tumor DNA/Pt adduct,KB tumors,less than 10 pg of Pt/μg of DNA
same,tumor growth inhibition,[1],30%
same,maximum tolerated dose (MTD),[2],less than 10 mg/kg
